US20110212899A1, “Corneal Neuritogenesis Promoter Containing Pacap and Its Derivative” (priority 2004, published 2011)
Where no end group is shown, it is not given here.

Legend:
[1] = test system: rabbit eye (tear secretion); assay: Promoting effect on tear secretion in a rabbit (Schirmer method, Test Example 6); assay type: in vivo; conditions: 0.1% eye drops, 50 μL; from 20 minutes to 120 minutes after administration
Method: Changes in the tear amount when PACAP27 and peptide 24 were administered to the eyes of a rabbit were examined. Japanese white rabbits with a body weight of 1.5 to 2.0 kg purchased from Kitayama Labes Co., Ltd were used. The animals were each put in separate cages placed in a room wherein a temperature of 23±3° C. and a humidity of 55±10% were kept and a light was on for 12 hours per day (lighting at 8:00 and lights-out at 20:00), and raised after arrival until the final day of the test. The animals were given 100 g of solid feed (Labo R Stock, Nosan Corporation) per day, and could freely have tap water. PACAP27 and peptide 24 were used as test substances. […] The amount of tear secreted was measured at 8.5 minutes before administration, and at 10 minutes, 20 minutes, 30 minutes, 60 minutes and 120 minutes after the administration by a Schirmer method. […] After the tear in the lower eyelid conjunctival sac was wiped with filter paper, the amount of tear secreted in 1 minute was measured using a Schirmer's test strip (Showa Yakuhin Kako Co.). The difference between the tear secretion amount at each time point after administration of the eye drops and the tear secretion amount before administration of the eye drops was calculated as a change in the tear amount caused by the test substance. […]

[2] = test system: excised rabbit lacrimal gland; assay: Promoting effect on protein secretion from an excised lacrimal gland (2) (Test Example 5); assay type: cell-based; conditions: 10^−7 M, incubated 60 minutes; p<0.05
Method: A lacrimal gland was excised from a rabbit and incubated in a solution containing PACAP27 or peptide 24, and changes in the amount of secreted protein were examined as lacrimal gland stimulating activity.
Japanese white rabbits with a body weight of 1.5 to 2.0 kg purchased from Fukusaki Rabbit warren were used. The animals were each put in separate cages placed in a room wherein a temperature of 23±3° C. and a humidity of 55±10% were kept and a light was on for 12 hours per day (lighting at 8:00 and lights-out at 20:00), and raised after arrival until the final day of the test. The animals were given 100 g of solid feed (Labo R Stock, Nosan Corporation) per day, and could freely have tap water.
PACAP27 and peptide 24 were used as test substances. Test substance solutions were prepared as follows. […]
The section sample in a stationary state was incubated in 0.5 mL of a fresh incubation solution at 37° C. for 20 minutes under a mixed gas atmosphere of 95% oxygen and 5% carbon dioxide. After completion of the incubation, the incubation solution was collected, and the protein amount in the solution was determined by using a protein staining reagent (DC Protein Assay Reagent, Bio Rad). […] The incubation solution was collected, and the protein amount in the incubation solution was determined. […]

## His-Ser-Asp-Ala-Ile-Phe-Thr-Asp-Ser-Tyr-Ser-Arg-Tyr-Arg-Arg-Gln-Leu-Ala-Val-Arg-Arg-Tyr-Leu-Ala-Ala-Val-Leu-Gly-Arg-Arg-NH2 (HSDAIFTDSYSRYRRQLAVRRYLAAVLGRR-NH2) [Peptide 24]
[1]
  tear secretion amount compared with vehicle solution-administration group: significant increase
[2]
  protein secretion rate of excised lacrimal gland compared with control group: significant increase
